Reference: patent publication US20250041294A1, “Synergistic compositions for use in the treatment of cancer” (Sartar Therapeutics Oy, priority 2021, published 2025)

What was measured:
Assay type in all cases: cell-based
[1] = test system: GOT3 cell line; test: High throughput drug sensitivity and resistance test (CellTiter-Glo, 72 hours); details: GOT3; for GOT3 cell line: DSS(combo (BAY2666605))-DSS(drug): drug combined with BAY2666605 (40 nM) minus drug alone; for GOT3 cell line: DSS(combo (anagrelide))-DSS(drug): drug combined with anagrelide hydrochloride (100 nM) minus drug alone
In short: (§1)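 Compounds were plated in 10-fold dilutions spanning a 10,000-fold range, alone or with anagrelide (100 nM; SA4, GOT3) or BAY2666605 (40 nM; GIST882, SA4, GOT3). Viability was read by CellTiter-Glo after 72 h and normalized to DMSO and benzethonium chloride controls. Responses were expressed as DSS from four-parameter fits, and the single-agent DSS was subtracted from the combination DSS.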

[2] = test system: SA4 cell line; test: as above; details: SA4; for SA4 cell line: DSS(combo (BAY2666605))-DSS(drug): drug combined with BAY2666605 (40 nM) minus drug alone; for SA4 cell line: DSS(combo (anagrelide))-DSS(drug): drug combined with anagrelide hydrochloride (100 nM) minus drug alone
In short: as §1

[3] = test system: GIST882 cell line; test: as above; details: drug combined with BAY2666605 (40 nM) minus drug alone
In short: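 GIST882 viability read by CellTiter-Glo after 72 h, normalized to 0.01% DMSO and 100 μmol/L benzethonium chloride. Compounds also combined with 40 nM BAY2666605. Four-parameter logistic curves; response as drug sensitivity score, with synergy as combination DSS minus single-agent DSS.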

[4] = test system: GOT3 and SA4 cell lines; test: High throughput drug sensitivity and resistance test, average over cell lines (anagrelide combination); details: anagrelide combination, average of SA4 and GOT3; aDSS higher than 3.0 = synergy
In short: as §1

[5] = test system: GIST882, GOT3 and SA4 cell lines; test: High throughput drug sensitivity and resistance test, average over cell lines (BAY2666605 combination); details: for Average DSS (aDSS): BAY2666605 combination, average of GIST882, SA4 and GOT3, aDSS higher than 3.0 = synergy; for synergy in high-throughput screening (in words): with anagrelide (GOT3, SA4) or BAY2666605 (GIST882, GOT3, SA4)
In short: as §1

[6] = test system: GIST882 cell line; test: Drug combination testing with concentration matrices, SynergyFinder 2.0; details: combination with anagrelide, seven-concentration matrices
Procedure: (§2) Drug combination testing with anagrelide and 12 selected drugs was performed as described above but with selected drugs using drug concentration matrices covering seven different concentrations with 3 replicate sample of each combinations and in two replicate assays. […] The tool implements synergy scoring with four major reference models: HSA, Loewe, Bliss and ZIP models. The degree of a drug combination effect can be readily visualized as a synergy landscape map over the dose matrix and ZIP synergy score.

[7] = test system: GOT3 cell line; test: as above; details: combination with anagrelide, seven-concentration matrices
Procedure: as §2

[8] = test system: SA4 cell line; test: as above; details: combination with anagrelide, seven-concentration matrices
Procedure: as §2

[9] = test system: GIST882, SA4, and GOT3 cell lines; test: Drug combination testing with concentration matrices, SynergyFinder 2.0 (all three cell lines); details: drug concentration matrices and SynergyFinder 2.0, with or without Anagrelide
Procedure: Drug combination testing with anagrelide and 12 selected drugs was performed as described above but with selected drugs using drug concentration matrices covering seven different concentrations with 3 replicate sample of each combinations and in two replicate assays. Synergy was assessed using an R package SynergyFinder 2.0 (Ianevski A, et al. 2020). The tool implements synergy scoring with four major reference models: HSA, Loewe, Bliss and ZIP models. The degree of a drug combination effect can be readily visualized as a synergy landscape map over the dose matrix and ZIP synergy score.

[10] = test system: GIST882, SA4 and GOT3 cell lines; test: Cell viability assay (96 well, CellTiter-Glo, 72 hours); details: for synergy with DNMDP (in words): FIGS. 7-8
Procedure: Cell viability assay. Cells were plated on 96 Well White/Clear Tissue Culture Treated Plate (FALCON, 353377) 24 hours prior to medium change with drugs. Viabilities of cells in different treatments were evaluated 72 hours after treatment incubation with CellTiter-Glo® Luminescent Cell Viability Assay (G7572, Promega) following manufacturer's instruction. Reagent and cells stabilized to room temperature. Reagent added 100 μl/well, shaken for 2 minutes at room temperature and incubated for 10 min at room temperature before measuring the luminescence by using Hidex Sence microplate reader (Hidex oy). Growth medium was used to exclude background signal from the results.

[11] = treated together with 3-hydroxy-anagrelide, FIGS. 5 and 6
[12] = treated together with Anagrelide, FIGS. 3 and 4

Structure (SMILES) | GOT3 cell line: DSS(combo (BAY2666605))-DSS(drug) [1] | GOT3 cell line: DSS(combo (anagrelide))-DSS(drug) [1] | SA4 cell line: DSS(combo (BAY2666605))-DSS(drug) [2] | SA4 cell line: DSS(combo (anagrelide))-DSS(drug) [2] | GIST882 cell line: DSS(combo (BAY2666605))-DSS(drug) [3] | Average DSS (aDSS) [4] | Average DSS (aDSS) [5] | synergy in high-throughput screening (in words) [5] | Average ZIP synergy score [6] | Average ZIP synergy score [7] | Average ZIP synergy score [8] | efficacy in cell lines (in words) [9] | synergy with DNMDP (in words) [10] | cell viability, combination result (in words) [10, 11] | cell viability, combination result (in words) [10, 12]
CN(C)CC#Cc1ccc(OCCCc2sc(N3CCc4cccc(C(=O)Nc5nc6ccccc6s5)c4C3)nc2C(=O)O)c(F)c1 [A-1155463] | 6.9 | 7.5 | −3.6 | 22.2 | 23 | 14.85 | 8.8 | synergistic | 15.5 | 12.7 | 11.1 | significant efficacy in cell lines only when they were administered with Anagrelide | showed synergy with DNMDP | verified the result | verified the result
Cc1c(-c2ccc(N3CCc4cccc(C(=O)Nc5nc6ccccc6s5)c4C3)nc2C(=O)O)cnn1CC12CC3CC(CC(C3)C1)C2 [A-1331852] | 2.8 | 3.6 | 12.6 | 14.9 | 15.1 | 9.25 | 10.2 | synergistic | 9.6 | 11.6 | 11.1 | significant efficacy in cell lines only when they were administered with Anagrelide |  |  | 
CC1(C)CCC(c2ccc(Cl)cc2)=C(CN2CCN(c3ccc(C(=O)NS(=O)(=O)c4ccc(N[C@H](CCN5CCOCC5)CSc5ccccc5)c(S(=O)(=O)C(F)(F)F)c4)cc3)CC2)C1 [Navitoclax, navitoclax] | 1.7 | 2.6 | 28.5 | 17.4 | 20.7 | 10 | 17.0 | synergistic | 11.7 | 2.4 | 8 | significant efficacy in cell lines only when they were administered with Anagrelide | showed synergy with DNMDP | verified the result | verified the result
